Source: ChEMBL document CHEMBL1140603, “Simple criterion for selection of flavonoid compounds with anti-HIV activity” (Bioorg Med Chem Lett, 2007)
pEC50: −log10 of the molar value.

System: Human immunodeficiency virus 1
Assay: Inhibition of HIV1 replication
Type: functional, organism-based

Structure (SMILES)	pEC50
O=c1cc(-c2ccc(O)c(O)c2)oc2ccccc12	≤ 4.00
COc1ccc(-c2cc(=O)c3c(OC)c(OC)ccc3o2)cc1OC	≤ 4.00
COc1ccc(-c2oc3cc(O)ccc3c(=O)c2OC)cc1	≤ 4.00
COc1ccc(-c2cc(=O)c3c(OC)c(OC)c(OC)cc3o2)cc1	≤ 4.00
O=c1cc(-c2ccccc2)oc2cc(O)ccc12 [7-HYDROXYFLAVONE]	≤ 4.00
COc1ccc(-c2cc(=O)c3c(O)cc(O)cc3o2)cc1 [ACACETIN]	≤ 4.00
O=c1cc(-c2ccc(O)cc2)oc2cc(O)cc(O)c12 [APIGENIN]	≤ 4.00
O=c1cc(-c2ccccc2)oc2cc(O)cc(O)c12 [CHRYSIN]	≤ 4.00
COc1c(O)cc2oc(-c3ccc(O)c(O)c3)cc(=O)c2c1O [EUPAFOLIN]	> 4.00
O=c1c(O)c(-c2ccc(O)c(O)c2)oc2cc(O)ccc12 [FISETIN]	> 4.00
COc1cc(O)c2c(=O)cc(-c3ccc(O)cc3)oc2c1 [GENKWANIN]	≤ 4.00
O=c1c(O)c(-c2ccc(O)cc2)oc2cc(O)cc(O)c12 [KAEMPFEROL]	> 4.00
O=c1c(O)c(-c2ccc(O)cc2O)oc2cc(O)cc(O)c12 [MORIN]	> 4.00
O=c1c(O)c(-c2cc(O)c(O)c(O)c2)oc2cc(O)cc(O)c12 [MYRICETIN]	> 4.00
O=c1c(O)c(-c2ccc(O)c(O)c2)oc2cc(O)c(O)c(O)c12 [QUERCETAGETIN]	> 4.00
O=c1c(O)c(-c2ccc(O)c(O)c2)oc2cc(O)cc(O)c12 [QUERCETIN]	> 4.00
COc1cc(O)c2c(=O)c(O)c(-c3ccc(O)c(O)c3)oc2c1 [RHAMNETIN]	> 4.00
O=c1c(O)c(-c2cc(O)c(O)c(O)c2)oc2cc(O)ccc12 [ROBINETIN]	> 4.00
COc1ccc(-c2cc(=O)c3c(OC)c(OC)c(OC)cc3o2)cc1OC [SINENSETIN]	≤ 4.00
COc1ccc(-c2cc(=O)c3c(OC)c(OC)c(OC)c(OC)c3o2)cc1 [TANGERETIN]	≤ 4.00
